According to patent US11547681B2, “N-acylethanolamide derivatives and uses thereof” (ELIEM THERAPEUTICS, INC., priority 2016, dated 2023):

Test: in vitro
Details: male; for Measured concentration of analyte PEA, 0 min / Measured concentration of analyte PEA, 10 min / Measured concentration of analyte PEA, 20 min / Measured concentration of analyte PEA, 30 min / Measured concentration of analyte PEA, 60 min / % Remaining of Initial, 0 min / % Remaining of Initial, 10 min / % Remaining of Initial, 20 min / % Remaining of Initial, 30 min / % Remaining of Initial, 60 min: 1 μM; for % Remaining of Initial, 0 min / % Remaining of Initial, 10 min / % Remaining of Initial, 20 min / % Remaining of Initial, 30 min / % Remaining of Initial, 60 min / microsomal CLint at 1 μM / half-life at 1 μM: microsomes; for % Remaining of Initial, 0 min: 0 h; for % Remaining of Initial, 30 min: 0.5 h; for % Remaining of Initial, 60 min: 1 h
Protocol: (§1) Reaction mixture, minus cofactors, was prepared as described below. Test article was added into the reaction mixture at a final concentration of 1 μM. […] An aliquot of the reaction mixture (without cofactor) was equilibrated in a shaking water bath at 37° C. for 3 minutes. The reaction was initiated by the addition of cofactor, and the mixture was incubated in a shaking water bath at 37° C. Aliquots (100 μL) were withdrawn at 0, 10, 20, 30, and 60 minutes. Test article samples were immediately combined with 300 μL of ice-cold acetonitrile containing 1% formic acid. Control samples were immediately combined with 400 μL of ice-cold 50/50 acetonitrile (ACN)/dH2O containing 0.1% formic acid and internal standard to terminate the reaction. Samples were then mixed and centrifuged to precipitate proteins. Calibration standards were prepared in matched matrix. Samples and standards were assayed by LC-MS/MS using electrospray ionization for both dosed prodrug and expected drug (PEA). Analytical conditions are outlined in Appendix 8-1. Test article concentration at each time point was compared to test article concentration at time 0 to determine the percent remaining at each time point. Half-lives were calculated using GraphPad software, fitting to a single-phase exponential decay equation.
Reaction mixture, minus cofactors, was prepared as described below. Test article was added into the reaction mixture at a final concentration of 1 μM. […] An aliquot of the reaction mixture (without cofactor) was equilibrated in a shaking water bath at 37° C. for 5 minutes. Reaction was initiated by the addition of cofactor, and the mixture was incubated in a shaking water bath at 37° C. Aliquots (100 μL) were withdrawn at 0, 10, 20, 30, and 60 minutes. Test article samples were immediately combined with 300 μL of ice-cold acetonitrile containing 1% formic acid. Control samples were immediately combined with 400 μL of ice-cold 50/50 acetonitrile (ACN)/dH2O containing 0.1% formic acid and internal standard to terminate the reaction. Samples were then mixed and centrifuged to precipitate proteins. Calibration standards were prepared in matched matrix. Samples and standards were assayed by LC-MS/MS using electrospray ionization for both the dosed prodrug and the expected drug (PEA). Analytical conditions are outlined in Appendix 10-1. Test article concentration at each time point was compared to the test article concentration at time 0 to determine the percent remaining at each time point. Half-lives were calculated using GraphPad software, fitting to a single-phase exponential decay equation.
as §1, with “minutes. Reaction” for “minutes. The reaction”, “300 μL,” for “300 μL”, “Appendix 13-1.” for “Appendix 8-1.”
Reaction mixture, minus cofactors, was prepared as described below.

[1] = CD-1, mouse, calculated value in parentheses
[2] = CD-1, mouse, Calculated half-life (in parentheses)

CCCCCCCCCCCCCCCC(=O)NCCOC(=O)CCC [Compound I-2]
Measured concentration of analyte PEA, 0 min (Beagle, dog): 0.23 µM | Measured concentration of analyte PEA, 10 min (Beagle, dog): 0.48 µM | Measured concentration of analyte PEA, 20 min (Beagle, dog): 0.38 µM | Measured concentration of analyte PEA, 30 min (Beagle, dog): 0.29 µM | Measured concentration of analyte PEA, 60 min (Beagle, dog): 0.17 µM | % Remaining of Initial, 0 min (Beagle, dog): 100% | % Remaining of Initial, 10 min (Beagle, dog): 5.4% | % Remaining of Initial, 20 min (Beagle, dog): <1.0% | % Remaining of Initial, 30 min (Beagle, dog): <1.0% | % Remaining of Initial, 60 min (Beagle, dog): <1.0% | microsomal CLint at 1 μM (Beagle, dog): 581 µL/min/mg | half-life at 1 μM (Beagle, dog, Half-life): 0.04 h | Measured concentration of analyte PEA, 0 min (CD-1, mouse): 0.48 µM | Measured concentration of analyte PEA, 10 min (CD-1, mouse): 0.34 µM | Measured concentration of analyte PEA, 20 min (CD-1, mouse): 0.19 µM | Measured concentration of analyte PEA, 30 min (CD-1, mouse): 0.12 µM | Measured concentration of analyte PEA, 60 min (CD-1, mouse): 0.023 µM | % Remaining of Initial, 0 min (CD-1, mouse): 100% | % Remaining of Initial, 10 min (CD-1, mouse): <1.0% | % Remaining of Initial, 20 min (CD-1, mouse): <1.0% | % Remaining of Initial, 30 min (CD-1, mouse): <1.0% | % Remaining of Initial, 60 min (CD-1, mouse): <1.0% | microsomal CLint at 1 μM (CD-1, mouse): > 1380 µL/min/mg | half-life at 1 μM (CD-1, mouse, Half-life): < 0.0167 h

CCCCCCCCCCCCCCCC(=O)NCCOC(=O)CCC(=O)OCC(COC(=O)CCCCCCC)OC(=O)CCCCCCC (stereo not drawn) [Compound I-3, PEA-Succinate-Glycerol-Di-Caprylic]
Measured concentration of analyte PEA, 0 min (Beagle, dog): 0.00074 µM | Measured concentration of analyte PEA, 10 min (Beagle, dog): 0.023 µM | Measured concentration of analyte PEA, 20 min (Beagle, dog): 0.037 µM | Measured concentration of analyte PEA, 30 min (Beagle, dog): 0.042 µM | Measured concentration of analyte PEA, 60 min (Beagle, dog): 0.053 µM | % Remaining of Initial, 0 min (Beagle, dog): 100% | % Remaining of Initial, 10 min (Beagle, dog): 94% | % Remaining of Initial, 20 min (Beagle, dog): 85% | % Remaining of Initial, 30 min (Beagle, dog): 85% | % Remaining of Initial, 60 min (Beagle, dog): 74% | microsomal CLint at 1 μM (Beagle, dog): < 23.1 µL/min/mg | half-life at 1 μM (Beagle, dog, Half-life): > 1 h | Measured concentration of analyte PEA, 0 min (CD-1, mouse): 0.0079 µM | Measured concentration of analyte PEA, 10 min (CD-1, mouse): 0.025 µM | Measured concentration of analyte PEA, 20 min (CD-1, mouse): 0.025 µM | Measured concentration of analyte PEA, 30 min (CD-1, mouse): 0.042 µM | Measured concentration of analyte PEA, 60 min (CD-1, mouse): 0.025 µM | % Remaining of Initial, 0 min (CD-1, mouse): 100% | % Remaining of Initial, 10 min (CD-1, mouse): 82% | % Remaining of Initial, 20 min (CD-1, mouse): 83% | % Remaining of Initial, 30 min (CD-1, mouse): 60% | % Remaining of Initial, 60 min (CD-1, mouse): 70% | microsomal CLint at 1 μM (CD-1, mouse): < 23.1 µL/min/mg | microsomal CLint at 1 μM [1]: 13.8 µL/min/mg | half-life at 1 μM [2]: 1.67 h | half-life at 1 μM (CD-1, mouse, Half-life): > 1 h

CC/C=C\C/C=C\C/C=C\C/C=C\C/C=C\CCCC(=O)OCCNC(=O)CCCCCCCCCCCCCCC [Compound I-5]
Measured concentration of analyte PEA, 0 min (Beagle, dog): 0.025 µM | Measured concentration of analyte PEA, 10 min (Beagle, dog): 0.081 µM | Measured concentration of analyte PEA, 20 min (Beagle, dog): 0.090 µM | Measured concentration of analyte PEA, 30 min (Beagle, dog): 0.087 µM | Measured concentration of analyte PEA, 60 min (Beagle, dog): 0.063 µM | % Remaining of Initial, 0 min (Beagle, dog): 100% | % Remaining of Initial, 10 min (Beagle, dog): 84% | % Remaining of Initial, 20 min (Beagle, dog): 75% | % Remaining of Initial, 30 min (Beagle, dog): 75% | % Remaining of Initial, 60 min (Beagle, dog): 67% | microsomal CLint at 1 μM (Beagle, dog): < 23.1 µL/min/mg | microsomal CLint at 1 μM (Beagle, dog, calculated value in parentheses): 13.3 µL/min/mg | half-life at 1 μM (Beagle, dog, Calculated half-life (in parentheses)): 1.73 h | half-life at 1 μM (Beagle, dog, Half-life): > 1 h | Measured concentration of analyte PEA, 0 min (CD-1, mouse): 0.048 µM | Measured concentration of analyte PEA, 10 min (CD-1, mouse): 0.080 µM | Measured concentration of analyte PEA, 20 min (CD-1, mouse): 0.052 µM | Measured concentration of analyte PEA, 30 min (CD-1, mouse): 0.048 µM | Measured concentration of analyte PEA, 60 min (CD-1, mouse): 0.024 µM | % Remaining of Initial, 0 min (CD-1, mouse): 100% | % Remaining of Initial, 10 min (CD-1, mouse): 72% | % Remaining of Initial, 20 min (CD-1, mouse): 57% | % Remaining of Initial, 30 min (CD-1, mouse): 56% | % Remaining of Initial, 60 min (CD-1, mouse): 55% | microsomal CLint at 1 μM (CD-1, mouse): 23.6 µL/min/mg | half-life at 1 μM (CD-1, mouse, Half-life): 0.983 h

CCCCC/C=C\C/C=C\CCCCCCCC(=O)OCCNC(=O)CCCCCCCCCCCCCCC [Compound I-6]
Measured concentration of analyte PEA, 0 min (Beagle, dog): 0.030 µM | Measured concentration of analyte PEA, 10 min (Beagle, dog): 0.087 µM | Measured concentration of analyte PEA, 20 min (Beagle, dog): 0.091 µM | Measured concentration of analyte PEA, 30 min (Beagle, dog): 0.080 µM | Measured concentration of analyte PEA, 60 min (Beagle, dog): 0.084 µM | % Remaining of Initial, 0 min (Beagle, dog): 100% | % Remaining of Initial, 10 min (Beagle, dog): 103% | % Remaining of Initial, 20 min (Beagle, dog): 100% | % Remaining of Initial, 30 min (Beagle, dog): 91% | % Remaining of Initial, 60 min (Beagle, dog): 77% | microsomal CLint at 1 μM (Beagle, dog): < 23.1 µL/min/mg | half-life at 1 μM (Beagle, dog, Half-life): > 1 h | Measured concentration of analyte PEA, 0 min (CD-1, mouse): 0.022 µM | Measured concentration of analyte PEA, 10 min (CD-1, mouse): 0.055 µM | Measured concentration of analyte PEA, 20 min (CD-1, mouse): 0.039 µM | Measured concentration of analyte PEA, 30 min (CD-1, mouse): 0.041 µM | Measured concentration of analyte PEA, 60 min (CD-1, mouse): 0.027 µM | % Remaining of Initial, 0 min (CD-1, mouse): 100% | % Remaining of Initial, 10 min (CD-1, mouse): 84% | % Remaining of Initial, 20 min (CD-1, mouse): 74% | % Remaining of Initial, 30 min (CD-1, mouse): 73% | % Remaining of Initial, 60 min (CD-1, mouse): 61% | microsomal CLint at 1 μM (CD-1, mouse): < 23.1 µL/min/mg | microsomal CLint at 1 μM [1]: 16.4 µL/min/mg | half-life at 1 μM [2]: 1.4 h | half-life at 1 μM (CD-1, mouse, Half-life): > 1 h
